Source: US20080248112A1 (priority 2007, published 2008)
Entries after “also recorded” stand apart in the source; their conditions may differ.

System: glycosylated hemoglobin level (HbAlC)
Experiment: Clinical study of long term administration of ranolazine: HbA1C in patients having coronary disease
Assay type: in vivo, human
Source text: Baseline is in-hospital visit prior to hospitalization.

COc1ccccc1OCC(O)CN1CCN(CC(=O)Nc2c(C)cccc2C)CC1 (racemic) [Ranolazine, (±)-N-(2,6-dimethylphenyl)-4-[2-hydroxy-3-(2-methoxyphenoxy)-propyl]-1-piperazineacetamide]
Number of patients with HbA1c ≧7% (Diabetes at enrollment, n = 1098, Month 16): 63
Number of patients with HbA1c ≧7% (No Diabetes at enrollment, n = 2170, Final Visit): 92
Number of patients with HbA1c ≧7% (No Diabetes at enrollment, n = 2170, Month 4): 78
Number of patients with HbA1c ≧7% (No Diabetes at enrollment, n = 2170, Month 8): 72
Number of patients with HbA1c ≧7% (No Diabetes at enrollment, n = 2170, Month 16): 21
Effect on HbAlc levels (all patients treated, FIGS. 1 and 2): HbAlc lowering effect on all patients treated; also recorded: significantly lowers serum HbAlC levels
Effect on HbAlc levels (diabetic patients, FIG. 2): reduction in the amount of HbAlC levels
Effect on HbAlc levels (non-diabetic patients, FIG. 2): reduction in the amount of HbAlC levels
